The record followed here is patent US10508118B2, “Pyrimidopyrrole compounds, method for preparing the same, pharmaceutical compositions comprising the same and uses thereof” (Xiamen University, priority 2015, dated 2019).

Holding throughout (assay type): cell-based
The target of one test is T1, EML4-ALK-BaF3 (Homo sapiens, UniProt Q9UM73).
T1 construct: expressed in transfected cells; host or cells: Ba/F3 cells; the other entry of the earlier key: EML4 (Q9HC35, Echinoderm microtubule-associated protein-like 4)
The test can be described thus: Growth inhibition of EML4-ALK transformed BaF3 cells (MTS). To be noted: for IC50: EML4-ALK-BaF3 cells, 48 hours, MTS, Table 12. Put shortly: (§1)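 Ba/F3 cells (2×10^4/well) in DMEM or RPMI1640 with 10% FBS exposed to 8 compound concentrations (top 10 μM, 1/3 serial dilution, 0.1% DMSO) for 48 h at 37 °C, 5% CO2. Viability by MTS/PES, 1-4 h, OD 490 nm; triplicates. IC50 fitted from inhibition rate.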

In another test the target is T2, NPM-ALK-BaF3 (Homo sapiens, UniProt Q9UM73).
T2 construct: expressed in transfected cells; host or cells: Ba/F3 cells; the other entry of the earlier key: NPM1 (P06748, Nucleophosmin)
The test is described as follows: Growth inhibition of NPM-ALK transformed BaF3 cells (MTS). To be noted: 48 hours, Table 12. The gist of the method: (§2)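 MTS absorbance at 490 nm, measured 1–4 h after reagent addition, reports growth after 48 h compound exposure (37 °C, 5% CO2) of 2×10^4 cells/well. Eight 1/3-step concentrations from a 10 μM top, 0.1% DMSO; triplicate inhibition relative to vehicle and blank gives IC50.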

For a further test, the target named is T3, EML4-ALK (L1196M)-BaF3 (Homo sapiens, UniProt Q9UM73, L1196M).
T3 construct: expressed in transfected cells; host or cells: Ba/F3 cells; the other entry of the earlier key: EML4 (Q9HC35, Echinoderm microtubule-associated protein-like 4)
The test can be described thus: Growth inhibition of EML4-ALK (L1196M) transformed BaF3 cells (MTS). To be noted: 48 hours, Table 12, read-out: L1196M (IC50 nM). The gist of the method: as §1

A further test has as its system wild type BaF3. The test is described as follows: Growth inhibition of wild type BaF3 cells (broad-spectrum toxicity). To be noted: Mus musculus, BaF3, 48 h, MTS, Table 12. The gist of the method:
as §2

SMILES strings stand for the structures. A value given as a limit tells only on which side of the number the result lay.

The term IC50 denotes the point on the concentration scale where inhibition reaches its midpoint.

On to `CC(C)Sc1ccccc1CNc1nc(Nc2ccc(S(N)(=O)=O)cc2)nc2ccn(C)c12` [IIJ-3], for which the IC50 against EML4-ALK-BaF3 was > 10000 nM; against NPM-ALK-BaF3, > 10000 nM; on EML4-ALK (L1196M)-BaF3, 9700 nM; with wild type BaF3, > 10000 nM.
`COc1cc(N2CCN(C)CC2)ccc1Nc1nc(NCc2ccccc2S(C)(=O)=O)c2c(ccn2C)n1` [IIK-1]: the half-maximal inhibitory concentration (IC50) at EML4-ALK-BaF3 is ~2700 nM; against NPM-ALK-BaF3, 1980 nM; on EML4-ALK (L1196M)-BaF3 it was 2100 nM; in the test with wild type BaF3 it was 3280 nM.
The like results for `COc1cc(N2CCC(N3CCN(C)CC3)CC2)ccc1Nc1nc(NCc2ccccc2S(C)(=O)=O)c2c(ccn2C)n1` [IIK-2] were, in that order, ~3150 nM, ~3420 nM, ~2950 nM and ~2950 nM.
Taken in the same sequence, the figures for `Cn1ccc2nc(Nc3ccc(N4CCC(O)CC4)cc3)nc(NCc3ccccc3S(C)(=O)=O)c21` [IIK-3] were > 10000 nM, > 10000 nM, > 10000 nM and > 10000 nM.
The like results for `CN1CCN(c2ccc(Nc3nc(NCc4ccccc4S(C)(=O)=O)c4c(ccn4C)n3)cc2)CC1` [IIK-5] were, in that order, 1430 nM, 1880 nM, ~2560 nM and ~2870 nM.
As for `COc1cc(C(=O)N2CCC(N3CCN(C)CC3)CC2)ccc1Nc1nc(NCc2ccccc2S(C)(=O)=O)c2c(ccn2C)n1` [IIK-6], the concentration for half-maximal inhibition (IC50) against EML4-ALK-BaF3, against NPM-ALK-BaF3, at EML4-ALK (L1196M)-BaF3 and with wild type BaF3 was > 10000 nM each time.
Regarding `COc1cc(N2CCN(C)CC2)ccc1Nc1nc(NCc2ccccc2S(=O)(=O)C(C)C)c2c(ccn2C)n1` [IIL-1], the IC50 at EML4-ALK-BaF3 is 1300 nM; against NPM-ALK-BaF3 it was 1350 nM; at EML4-ALK (L1196M)-BaF3 it was 1590 nM; in the test with wild type BaF3, ~2610 nM.
With `COc1cc(N2CCC(N3CCN(C)CC3)CC2)ccc1Nc1nc(NCc2ccccc2S(=O)(=O)C(C)C)c2c(ccn2C)n1` [IIL-2], the IC50 on EML4-ALK-BaF3 was found to be 627 nM; against NPM-ALK-BaF3, 1820 nM; at EML4-ALK (L1196M)-BaF3 it was 1420 nM; with wild type BaF3, 2620 nM. Further, the targeting selectivity entry on EML4-ALK-BaF3 (ratio of IC50 between wild-type BaF3 and ALK transformed BaF3 cells) is given as “good targeting selectivity”.
Consider `CC(C)S(=O)(=O)c1ccccc1CNc1nc(Nc2ccc(N3CCC(O)CC3)cc2)nc2ccn(C)c12` [IIL-3], for which the half-inhibitory concentration (IC50) was > 10000 nM on EML4-ALK-BaF3, 7440 nM against NPM-ALK-BaF3, > 10000 nM at EML4-ALK (L1196M)-BaF3 and > 10000 nM in the test on wild type BaF3.
In the case of `CC(C)S(=O)(=O)c1ccccc1CNc1nc(Nc2ccc(S(N)(=O)=O)cc2)nc2ccn(C)c12` [IIL-4], the IC50 at EML4-ALK-BaF3, against NPM-ALK-BaF3, at EML4-ALK (L1196M)-BaF3 and in the test on wild type BaF3 was > 10000 nM each time.
As to `CC(C)S(=O)(=O)c1ccccc1CNc1nc(Nc2ccc(N3CCN(C)CC3)cc2)nc2ccn(C)c12` [IIL-5], the half-inhibitory concentration (IC50) against EML4-ALK-BaF3 was 1140 nM; on NPM-ALK-BaF3, 848 nM; at EML4-ALK (L1196M)-BaF3 it was 1530 nM; in the test on wild type BaF3, ~2760 nM.
For `COC(=O)c1ccccc1Oc1nc(Nc2ccc(N3CCN(C)CC3)cc2OC)nc2ccn(C)c12` [IIN-1], the concentration for half-maximal inhibition (IC50) against EML4-ALK-BaF3 is ~5750 nM; on NPM-ALK-BaF3, > 10000 nM; on EML4-ALK (L1196M)-BaF3, 6470 nM; in the test on wild type BaF3, ~9960 nM.
The like results for `COC(=O)c1ccccc1Oc1nc(Nc2ccc(N3CCC(N4CCN(C)CC4)CC3)cc2OC)nc2ccn(C)c12` [IIN-2] were, in that order, ~2590 nM, 2330 nM, 2220 nM and 5630 nM.
Consider `COC(=O)c1ccccc1Oc1nc(Nc2ccc(N3CCC(O)CC3)cc2)nc2ccn(C)c12` [IIN-3], for which the half-maximal inhibitory concentration (IC50) on EML4-ALK-BaF3, at NPM-ALK-BaF3, at EML4-ALK (L1196M)-BaF3 and with wild type BaF3 was > 10000 nM throughout.
On to `COC(=O)c1ccccc1Oc1nc(Nc2ccc(S(N)(=O)=O)cc2)nc2ccn(C)c12` [IIN-4], for which the IC50 against EML4-ALK-BaF3, against NPM-ALK-BaF3, at EML4-ALK (L1196M)-BaF3 and in the test on wild type BaF3 was > 10000 nM each time.
